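Each compound was tested at five concentrations against cells in 96-well plates for 48 hours. At the TGI there is no net growth.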
Tests used:
Experiment in all cases: NCI-60 cell line screen, 48 h
HS 578T breast = tested on: HS 578T breast
MDA-MB-435 = tested on: MDA-MB-435
SF-268 CNS = tested on: SF-268 CNS
SW-620 colon = tested on: SW-620 colon
SK-MEL-28 melanoma = tested on: SK-MEL-28 melanoma
HCT-116 colon = tested on: HCT-116 colon
NCI/ADR-RES ovarian = tested on: NCI/ADR-RES ovarian
MDA-MB-231 breast = tested on: MDA-MB-231 breast
LOX IMVI melanoma = tested on: LOX IMVI melanoma
SN12C renal = tested on: SN12C renal
OVCAR-4 ovarian = tested on: OVCAR-4 ovarian
EKVX NSCLC = tested on: EKVX NSCLC
CCRF-CEM leukemia = tested on: CCRF-CEM leukemia
HOP-62 NSCLC = tested on: HOP-62 NSCLC
786-0 renal = tested on: 786-0 renal
NCI-H23 lung = tested on: NCI-H23 lung
BT-549 breast = tested on: BT-549 breast
OVCAR-5 ovarian = tested on: OVCAR-5 ovarian
UACC-257 melanoma = tested on: UACC-257 melanoma
KM12 colon = tested on: KM12 colon
MDA-N = tested on: MDA-N
SR leukemia = tested on: SR leukemia
OVCAR-8 ovarian = tested on: OVCAR-8 ovarian
SNB-75 CNS = tested on: SNB-75 CNS
HCC-2998 colon = tested on: HCC-2998 colon
HCT-15 colon = tested on: HCT-15 colon
OVCAR-3 ovarian = tested on: OVCAR-3 ovarian
SF-295 CNS = tested on: SF-295 CNS
DU-145 prostate = tested on: DU-145 prostate
COLO 205 colon = tested on: COLO 205 colon
RPMI-8226 leukemia = tested on: RPMI-8226 leukemia
HT29 colon = tested on: HT29 colon
UO-31 renal = tested on: UO-31 renal
A498 renal = tested on: A498 renal
M14 melanoma = tested on: M14 melanoma
SF-539 CNS = tested on: SF-539 CNS
SNB-19 CNS = tested on: SNB-19 CNS
MALME-3M melanoma = tested on: MALME-3M melanoma
RXF 393 renal = tested on: RXF 393 renal
HOP-92 NSCLC = tested on: HOP-92 NSCLC
NCI-H460 lung = tested on: NCI-H460 lung
ACHN renal = tested on: ACHN renal
SK-MEL-2 melanoma = tested on: SK-MEL-2 melanoma
UACC-62 melanoma = tested on: UACC-62 melanoma
T-47D breast = tested on: T-47D breast
NCI-H522 lung = tested on: NCI-H522 lung
MOLT-4 leukemia = tested on: MOLT-4 leukemia
K-562 leukemia = tested on: K-562 leukemia
NCI-H226 lung = tested on: NCI-H226 lung
MCF7 breast = tested on: MCF7 breast
SK-MEL-5 melanoma = tested on: SK-MEL-5 melanoma
A549 NSCLC = tested on: A549 NSCLC
PC-3 prostate = tested on: PC-3 prostate
U251 CNS = tested on: U251 CNS
SK-OV-3 ovarian = tested on: SK-OV-3 ovarian
HL-60(TB) leukemia = tested on: HL-60(TB) leukemia
TK-10 renal = tested on: TK-10 renal
IGROV1 ovarian = tested on: IGROV1 ovarian

## COC(=O)C1C(O)C(C)C(O)C(C)(O)C=C(C)C2=C3C(=C(C)C(=O)c4c(O)c(c(C)c(OC(C)=O)c43)NC(=O)C(C)=C/C=C\C(C)(O)C(O)C(C)C1O)OCO2 (stereo not drawn)
HS 578T breast
  TGI: > 100 µM
MDA-MB-435
  TGI: > 100 µM
SF-268 CNS
  TGI: > 100 µM
SW-620 colon
  TGI: > 100 µM
SK-MEL-28 melanoma
  TGI: > 100 µM
HCT-116 colon
  TGI: > 100 µM
NCI/ADR-RES ovarian
  TGI: > 100 µM
MDA-MB-231 breast
  TGI: > 100 µM
LOX IMVI melanoma
  TGI: > 100 µM
SN12C renal
  TGI: > 100 µM
OVCAR-4 ovarian
  TGI: > 100 µM
EKVX NSCLC
  TGI: > 100 µM
CCRF-CEM leukemia
  TGI: > 100 µM
HOP-62 NSCLC
  TGI: > 100 µM
786-0 renal
  TGI: > 100 µM
NCI-H23 lung
  TGI: > 100 µM
BT-549 breast
  TGI: > 100 µM
OVCAR-5 ovarian
  TGI: > 100 µM
UACC-257 melanoma
  TGI: 78 µM
KM12 colon
  TGI: > 100 µM
MDA-N
  TGI: > 100 µM
SR leukemia
  TGI: > 100 µM
OVCAR-8 ovarian
  TGI: > 100 µM
SNB-75 CNS
  TGI: > 100 µM
HCC-2998 colon
  TGI: > 100 µM
HCT-15 colon
  TGI: > 100 µM
OVCAR-3 ovarian
  TGI: 57 µM
SF-295 CNS
  TGI: > 100 µM
DU-145 prostate
  TGI: > 100 µM
COLO 205 colon
  TGI: 69.7 µM
RPMI-8226 leukemia
  TGI: > 100 µM
HT29 colon
  TGI: > 100 µM
UO-31 renal
  TGI: > 100 µM
A498 renal
  TGI: > 100 µM
M14 melanoma
  TGI: > 100 µM
SF-539 CNS
  TGI: > 100 µM
SNB-19 CNS
  TGI: > 100 µM
MALME-3M melanoma
  TGI: 74.2 µM
RXF 393 renal
  TGI: > 100 µM
HOP-92 NSCLC
  TGI: > 100 µM
NCI-H460 lung
  TGI: > 100 µM
ACHN renal
  TGI: > 100 µM
SK-MEL-2 melanoma
  TGI: > 100 µM
UACC-62 melanoma
  TGI: > 100 µM
T-47D breast
  TGI: > 100 µM
NCI-H522 lung
  TGI: > 100 µM
MOLT-4 leukemia
  TGI: > 100 µM
K-562 leukemia
  TGI: > 100 µM
NCI-H226 lung
  TGI: > 100 µM
MCF7 breast
  TGI: > 100 µM
SK-MEL-5 melanoma
  TGI: 47.7 µM
A549 NSCLC
  TGI: > 100 µM
PC-3 prostate
  TGI: > 100 µM
U251 CNS
  TGI: > 100 µM
SK-OV-3 ovarian
  TGI: > 100 µM
HL-60(TB) leukemia
  TGI: > 100 µM
TK-10 renal
  TGI: > 100 µM
IGROV1 ovarian
  TGI: > 100 µM

Source: PubChem BioAssay (NCI)
